Results published in PMC3246799 (Science (New York, N.Y.), 2011).

Molecular target: T1, AHR2-2 (tomcod AHR2) (Microgadus tomcod, UniProt B6E9W5)
T1 sequence (B6E9W5 1-1104): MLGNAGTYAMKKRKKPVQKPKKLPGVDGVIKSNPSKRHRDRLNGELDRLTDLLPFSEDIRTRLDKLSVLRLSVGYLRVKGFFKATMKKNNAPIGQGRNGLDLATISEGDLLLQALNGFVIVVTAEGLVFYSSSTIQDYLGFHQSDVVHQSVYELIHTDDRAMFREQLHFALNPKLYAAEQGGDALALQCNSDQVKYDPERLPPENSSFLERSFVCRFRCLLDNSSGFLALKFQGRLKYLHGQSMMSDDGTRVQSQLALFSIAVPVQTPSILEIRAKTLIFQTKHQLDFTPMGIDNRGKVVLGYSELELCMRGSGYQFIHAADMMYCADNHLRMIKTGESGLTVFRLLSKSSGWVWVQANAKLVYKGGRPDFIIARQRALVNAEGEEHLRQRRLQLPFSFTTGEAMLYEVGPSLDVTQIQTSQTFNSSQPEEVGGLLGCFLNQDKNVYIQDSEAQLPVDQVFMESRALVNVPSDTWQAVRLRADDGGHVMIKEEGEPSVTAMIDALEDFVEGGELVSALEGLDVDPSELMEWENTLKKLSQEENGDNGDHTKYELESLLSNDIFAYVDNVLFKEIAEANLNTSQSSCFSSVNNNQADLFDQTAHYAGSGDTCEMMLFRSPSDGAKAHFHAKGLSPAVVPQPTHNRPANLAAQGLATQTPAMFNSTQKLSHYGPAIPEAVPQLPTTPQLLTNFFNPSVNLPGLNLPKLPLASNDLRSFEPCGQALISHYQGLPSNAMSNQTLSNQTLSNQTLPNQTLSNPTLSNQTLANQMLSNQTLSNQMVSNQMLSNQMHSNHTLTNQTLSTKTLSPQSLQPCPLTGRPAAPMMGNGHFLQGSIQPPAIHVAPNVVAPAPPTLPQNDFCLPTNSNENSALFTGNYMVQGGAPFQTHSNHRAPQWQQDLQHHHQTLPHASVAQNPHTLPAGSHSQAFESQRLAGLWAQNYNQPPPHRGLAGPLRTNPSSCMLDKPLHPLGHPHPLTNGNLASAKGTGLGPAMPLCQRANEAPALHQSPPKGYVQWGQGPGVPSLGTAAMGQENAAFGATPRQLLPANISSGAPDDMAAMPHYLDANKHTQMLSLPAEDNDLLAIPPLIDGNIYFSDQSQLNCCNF
Experiment: saturation binding of [3H]TCDD, velocity sedimentation on sucrose gradients
Details: labelled compound; 0.1 to 12 nM [3H]TCDD; apparent equilibrium constant

Q: How did the Kd turn out when `Clc1cc2c(cc1Cl)Oc1cc(Cl)c(Cl)cc1O2` [TCDD, 2,3,7,8-tetrachlorodibenzo-p-dioxin] was run?
A: 1.27 nM
